Experimental data: patent US20080139564A1, “SUBSTITUTED PHENYL PROPYL AMINES AS HISTAMINE H3 RECEPTOR AND SEROTONIN TRANSPORTER MODULATORS” (priority 2006, published 2008)

How the values were obtained:
[1] = target: T1, human H3 receptor (Homo sapiens, UniProt Q9Y5N1); assay: H3 receptor binding (N-[3H]-α-methylhistamine displacement, SK-N-MC cell membranes); conditions: 0.8 nM N-[3H]-α-methylhistamine, 60 min at 25° C.
T1 construct: expressed in transfected cells
In short: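 Membranes from SK-N-MC cells stably expressing cloned human H3 receptor, in 50 mM Tris/5 mM EDTA pH 7.4, incubated with 0.8 nM N-[³H]-α-methylhistamine ± compound for 60 min at 25° C., then filtered. Nonspecific binding defined with 10 μM histamine.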

[2] = target: T2, Rat SERT (Rattus norvegicus, UniProt P31652); assay: Rat brain SERT binding ([3H]-Citalopram displacement, rat brain membranes); conditions: 0.6 nM [3H]-Citalopram, 60 min at 25° C.
T2 construct: A rat brain without cerebellum (Zivic Laboratories, Inc.—Pittsburgh, Pa.) was homogenized; tissue Zivic Laboratories, Inc; host or cells: rat brain without cerebellum
In short: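 Membranes prepared from rat brain minus cerebellum in Tris pH 8/NaCl/KCl were incubated with 0.6 nM [3H]-citalopram and test compound for 60 min at 25° C. Bound ligand was separated by filtration. Nonspecific binding defined with 100 μM fluoxetine.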

[3] = target: T3, human SERT (Homo sapiens, UniProt P31645); assay: Human SERT binding (3H-citalopram displacement, HEK293 membranes); conditions: 3H-citalopram 3.1 nM, rt for 1 h
T3 construct: expressed in transfected cells; host or cells: HEK293
In short: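 HEK293 membranes expressing human SERT incubated with ^3H-citalopram (3.1 nM) for 1 h at rt in 50 mM Tris, 120 mM NaCl, 5 mM KCl, pH 7.4. Nonspecific binding defined with 10 μM fluoxetine. Ki derived from bound radioactivity using the ^3H-citalopram Kd.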

[4] = target: T1, human H3 receptor; assay: Cyclic AMP accumulation (β-galactosidase reporter in SK-N-MC cells); type: cell-based; conditions: read-out: pA2 (converted)
Method: Sublines of SK-N-MC cells were created that expressed a reporter construct and the human H3 receptor. The reporter gene (β-galactosidase) is under the control of multiple cyclic AMP responsive elements. In 96-well plates, histamine was added directly to the cell media followed 5 min later by an addition of forskolin (5 μM final concentration). When appropriate, antagonists were added 10 min prior to agonist addition. After a 6-h incubation at 37° C., the media was aspirated and the cells washed with 200 μL of phosphate-buffered saline followed by a second aspiration. Cells were lysed with 25 μL 0.1× assay buffer (10 mM Na-phosphate, pH 8, 0.2 mM MgSO4, 0.01 mM MnCl2) and incubated at rt for 10 min. Cells were then incubated for 10 min with 100 μL of 1× assay buffer containing 0.5% Triton and 40 mM β-mercaptoethanol. Color was developed using 25 μL of 1 mg/mL substrate solution (chlorophenolred β-D galactopyranoside; Roche Molecular Biochemicals, Indianapolis, Ind.). Color was quantitated on a microplate reader at absorbance 570 nm. The pA2 values were calculated by Schild regression analysis of the pEC50 values.

T1 sequence (Q9Y5N1 whole entry): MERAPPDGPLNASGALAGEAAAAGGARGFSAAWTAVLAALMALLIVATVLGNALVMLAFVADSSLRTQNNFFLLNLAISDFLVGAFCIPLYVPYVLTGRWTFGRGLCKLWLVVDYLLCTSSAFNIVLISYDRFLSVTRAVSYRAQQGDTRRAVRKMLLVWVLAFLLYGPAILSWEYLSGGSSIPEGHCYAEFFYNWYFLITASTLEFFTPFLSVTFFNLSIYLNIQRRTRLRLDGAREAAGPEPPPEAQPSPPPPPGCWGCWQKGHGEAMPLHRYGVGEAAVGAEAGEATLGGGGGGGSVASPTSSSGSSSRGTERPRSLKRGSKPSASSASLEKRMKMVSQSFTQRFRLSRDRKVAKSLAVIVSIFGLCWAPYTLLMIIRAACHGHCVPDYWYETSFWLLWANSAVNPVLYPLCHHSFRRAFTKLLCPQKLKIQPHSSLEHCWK
T3 sequence (P31645 whole entry): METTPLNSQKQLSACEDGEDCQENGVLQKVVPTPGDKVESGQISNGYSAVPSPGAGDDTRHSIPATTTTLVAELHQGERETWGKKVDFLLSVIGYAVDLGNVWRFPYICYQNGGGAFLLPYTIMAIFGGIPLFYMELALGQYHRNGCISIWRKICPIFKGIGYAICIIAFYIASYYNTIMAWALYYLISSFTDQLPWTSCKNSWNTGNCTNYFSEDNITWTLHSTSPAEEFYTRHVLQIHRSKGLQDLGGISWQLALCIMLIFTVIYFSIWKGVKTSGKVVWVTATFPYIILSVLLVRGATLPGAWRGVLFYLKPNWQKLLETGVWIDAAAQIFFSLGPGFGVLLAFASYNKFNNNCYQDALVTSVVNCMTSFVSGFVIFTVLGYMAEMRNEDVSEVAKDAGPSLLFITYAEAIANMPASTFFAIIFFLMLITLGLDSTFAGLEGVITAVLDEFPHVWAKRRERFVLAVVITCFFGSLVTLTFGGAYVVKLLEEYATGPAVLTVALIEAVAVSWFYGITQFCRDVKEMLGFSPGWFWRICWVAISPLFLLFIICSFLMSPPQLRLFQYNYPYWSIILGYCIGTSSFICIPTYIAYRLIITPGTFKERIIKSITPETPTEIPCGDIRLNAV
T2 sequence (P31652 whole entry): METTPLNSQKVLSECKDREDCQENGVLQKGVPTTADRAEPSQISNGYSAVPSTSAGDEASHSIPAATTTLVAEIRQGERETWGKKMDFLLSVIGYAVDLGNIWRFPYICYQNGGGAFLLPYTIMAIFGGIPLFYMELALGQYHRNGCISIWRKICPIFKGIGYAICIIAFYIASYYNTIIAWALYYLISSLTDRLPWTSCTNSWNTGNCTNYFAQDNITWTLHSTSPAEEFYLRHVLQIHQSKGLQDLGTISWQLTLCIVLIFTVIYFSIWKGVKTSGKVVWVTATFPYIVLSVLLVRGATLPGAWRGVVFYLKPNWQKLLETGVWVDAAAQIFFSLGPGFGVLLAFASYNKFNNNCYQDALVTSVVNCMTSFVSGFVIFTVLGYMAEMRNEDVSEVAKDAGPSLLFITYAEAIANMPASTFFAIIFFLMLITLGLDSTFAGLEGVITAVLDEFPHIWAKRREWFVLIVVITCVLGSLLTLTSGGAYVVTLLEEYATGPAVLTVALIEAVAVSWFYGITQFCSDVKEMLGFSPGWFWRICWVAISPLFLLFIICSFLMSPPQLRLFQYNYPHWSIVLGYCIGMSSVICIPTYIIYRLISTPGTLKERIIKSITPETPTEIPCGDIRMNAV

## CNCCC(Oc1ccc(Cl)c(Cl)c1)c1ccc(OCCCN2CCCCC2)cc1 (stereo not shown) [Example 71, {3-(3,4-Dichloro-phenoxy)-3-[4-(3-piperidin-1-yl-propoxy)-phenyl]-propyl}-methyl-amine]
[1]
  Ki: 2 nM
[2]
  Ki: 3 nM
[3]
  Ki: 0.8 nM
[4]
  Kb: 10.5 nM
